Data set [1] has as its system auricular lymph node. Conditions: mouse, in vivo. As for the experimental part:
Toxicol. 10(3); 173-180]. […] Each of the test sample was applied to both ears of Blab/c mouse in an amount of 50μl for 3 days and then auricular lymph node was isolated from mouse. Lymph node was micronized to monocellular state and then incubated for 24 hours with addition of radioisotope (^3 H-thymidine).

In data set [2] the test system is human fibroblasts. In words: Test for collagen synthesis (tritiated proline, CSP). As for the experimental part: The same count of human fibroblasts was incubated in each well of 24-well plate for 24 hours and then the test sample was applied thereto at the concentration of 10^-4 to 10^-7 w %/ml. After 2 hours, tritiated proline (L-2,3-^3 H proline) was applied to the plate and then further incubated for 24 hours. The amount of collagen as newly synthesized and secreted by fibroblasts utilizing the culture medium was measured by calculating the amount of CPS (collagenous sensitive protein) on the basis of cpm (counting per minute) number of L-2,3-^3 H proline.

The conditions of data set [3]: lipid-soluble; cited from earlier work.
The subject of data set [4] is skin of 9-weeks aged naked female mouse. The data set can be described thus: Test for organ incubation of skin (MTT assay). A general note: Tetrazolium dyes change colour on reduction, which living cells bring about.
Procedure: (§1) The test for organ incubation of skin was carried out by MTT assay method using naked female mouse.
For data set [5], the system named is skin photoaging. The settings on record: cited from earlier work.
Data set [6] has as its system skin. Conditions: guinea pig, in vivo. As for the experimental part: Assoc. Food and Drug Officials, US. Appraisal of the safety of chemicals in Food, Drugs and Cosmetics, pp46-59, Texas State Dept. of Health, Austin, Tex. and 2 Federal Register (1973): Method of testing primary irritant substances 38(187): pp1500-1541]. Six kinds of the test solutions were prepared at the concentration of 0.3% by using o/w formulation or Lexol GT-865 as the carrier vehicle. First, hair was removed from the portion (dorsal skin of mouse) for applying the test solution and then the naked portion was adapted to the environmental circumstance for 24 hours in order to minimize the skin irritability. The test solution and gauze were applied to the established portion (1.5 cm×1.5 cm) for applying the test solution, which was then sealed with the solid thin film and fixed with the elastic bandage for 48 hours in order to inhibit the evaporation and loss of the test sample. After 2 and 24 hours from removal of the closed patch (i. e. 50 and 72 hours after patch application, respectively), the degree of irritation was determined.

For data set [7] the following is noted: pH 7.4.
Procedure: The tests for identification of pharmacological activities of the compound of formula (I) according to the present invention were conducted as follows. First, the test for percutaneous absorption was carried out by cutting off the dorsal skin from 8-weeks aged female mouse, applying the test sample (35 mM) to the skin and then analysing the percutaneous absorption of the test sample by means of an apparatus for measuring percutaneous absorption (Franz cell) and HPLC.
Specifically, the dorsal skin of 8-weeks aged female mouse (naked mouse) was cut off and then 35 ml solution of the test sample was applied in an amount of 250 μl to the skin having a size of 1.7cm^2. Using the apparatus for measuring percutaneous absorption (Franz cell), after 24 hours, the absorbed materials were extracted respectively from 7 ml of the receptor solution [50 mM PBS buffer solution (pH=7.4) containing 2% VolPO20 Polyethylene oleyl ether (HLB=16)] and the skin and then quantitatively analyzed by high pressure liquid chromatography (HPLC).
The conditions of data set [8]: relative to retinoic acid; FASEB J., 10, 1014-1024, 1996; cited from earlier work.
The subject of data set [9] is V79-4 cells. The data set can be described thus: Cytotoxicity test (MTT assay). The class given is cell-based, Chinese hamster. Conditions: FIG. 2.
Procedure: The cytotoxicity test was carried out by MTT assay method using V79-4 cells.
Data set [10] deals with skin of 9-weeks aged naked female mouse.
Procedure: as §1
Where [11] appears, read: 0.3% in Lexol GT-865, MTT assay.

Where two headings read alike, the source gives them in different places.

As to `CC1=C(/C=C/C(C)=C/C=C/C(C)=C/C(=O)O)C(C)(C)CCC1` [Retinoic acid, all-trans-retinoic acid], the “allergy induction in comparison to ethanol” value in [1] is “six times or more”. Besides, the activation at 1e-06 w %/ml in data set [2] (Homo sapiens, Fibroblast, read-out: increase in collagen synthesis) was no more than 21.7%. Also, the skin absorption result in data set [3] is listed as “low skin absorption”. In data set [4] (0.3%), the “irritation” value was “strong irritation”. In data set [4] (setting [11]), the Degree of irritation worked out at 0.11 and the Safety result is given as “strong irritation”. In addition, the skin photoaging result in data set [5] (cream preparation applied to skin, JAMA 259, 1988) is “can be improved”. Also, in data set [6], the “difference between the irritation degrees” value is on record as “no significant difference”. Also, the “Receptor solution (amount absorbed)” value in [7] amounted to 11.40 nmol.

Regarding `CC1=C(/C=C/C(C)=C/C=C/C(C)=C/C(=O)O[C@@H]2O[C@H](C(=O)O)[C@@H](O)[C@H](O)[C@H]2O)C(C)(C)CCC1` [retinoyl β-glucuronide (RAG), retinoyl β-glucuronide], the toxicity result in data set [8] was “relatively reduced toxicity”.

As for “polyethoxylated retinamide of formula (I) (R=methyl, n=9.8)”, in [2] (10^-3 w %/ml or more), the “effect of increasing collagen synthesis at cytotoxic concentration” value is “does not exhibit any increasing effect”. Besides, in data set [2] (10^-7 w %/ml), the “increase in collagen synthesis (highest effect)” value was 33.8%. The “concentration at which effect of increasing collagen synthesis begins” value in data set [2] (limiting concentration at which any toxicity is not caused) is given as “below 10^-4 w %/ml”. For the same molecule, the cytotoxicity entry in [9] (10^-3 w %/ml or more) is recorded as “exhibits gradually”; in [9] (10^-4 w %/ml and below), “only a weak toxicity”.

On to `COc1ccc(C(C)=O)c(OC(=O)/C=C(C)/C=C/C=C(C)/C=C/C2=C(C)CCCC2(C)C)c1` [2-(all-trans-retinoyloxy)-4-methoxyacetophenone], for which the “inhibition of skin cancer and photoaging” value in data set [5] (U.S. Pat. No. 4,677,120) is “exhibits an effect of inhibiting skin cancer and photoaging”.

As for `CC1=C(/C=C/C(C)=C/C=C/C(C)=C/CO)C(C)(C)CCC1` [Retinol, retinol], the “Receptor solution (amount absorbed)” value in data set [7] is given as 11.48 nmol.

For `CC1=C(/C=C/C(C)=C/C=C/C(C)=C/C(=O)Nc2ccc(O)cc2)C(C)(C)CCC1` [N-(4-hydroxy-phenyl)retinamide (4-HPR), N-(4-hydroxy-phenyl)retinamide], the toxicity result in [8] is given as “relatively reduced toxicity”.

With `CCCCCCCCCCCCOS(=O)(=O)[O-].[Na+]` [Sodium lauryl sulfate], the Safety result in [4] (control group, <0.05%) is “minute irritation”; in data set [4] (control group, <0.25%), “moderate irritation”; in data set [4] (control group, <0.5%), “strong irritation”.

As for `CCCCCCCCCCCCCCCC(=O)OC/C=C(C)/C=C/C=C(C)/C=C/C1=C(C)CCCC1(C)C` [Retinol palmitate, retinol palmitate], the “allergy induction in comparison to ethanol” value in data set [1] is “six times or more”. Also, in data set [10], the Degree of irritation is 0.34, the Safety result is recorded as “minute irritation” and the “irritation” value was “weak irritation”. For the same molecule, the “effect of increasing collagen synthesis” value in [2] (10^-4 to 10^-7 w %/ml, FIG. 1) is listed as “does substantially not exhibit an effect of increasing collagen synthesis”. The “difference between the irritation degrees” value in [6] is on record as “no significant difference”. Also, in [7], the “Receptor solution (amount absorbed)” value came out at 0.48 nmol.

The record behind these values is patent US6316644A, “Pilyethoxylated retinamide derivatives and process for preparing the same” (LG Chemical Ltd., priority 1998, dated 2001).
